Patent US11981680B2, “Substituted thienopyrroles as PAD4 inhibitors” (BRISTOL-MYERS SQUIBB COMPANY, priority 2018, dated 2024)

Target: human PAD4 (hPAD4) (Homo sapiens (Human), UniProt Q9UM07)
Assay: RFMS Human PAD4 Functional Assay
Format: biochemical
Details: rapid-fire mass spectrum (RFMS) assay; 5 nM hPAD4 enzyme, 250 μM BAEE, 30 min preincubation at 37° C.
Method: Compounds of the present invention were assayed as inhibitors of PAD4 using the assay protocol described below.
RFMS Human PAD4 Functional Assay:
Compounds were solubilized in 100% DMSO to achieve a10 mM compound concentration. Compound stock solutions were stored at RT. A series of dilutions were prepared in DMSO and mixed 8 times with 20 μL mixing volume. Final top concentration of compound in the assay is 50 μM. Final assay conditions were as follows: • Reaction volume: 26 μl • Assay buffer: 25 mM hepes, pH 7.5, 5 mM NaCl, 1 mM DTT, 0.2 mg/ml BSA, 0.01% CHAPS, 50 μM Calcium, and 5 μM TPEN • Final concentrations: 5 nM hPAD4 enzyme, 250 μM BAEE, and 0.5% DMSO • Total incubation time: 30 mins compound and enzyme preincubation at 37° C., 90 min enzyme/substrate reaction, 30 min reaction with phenyl glyoxal at 37° C. • Stop solution: 40 μl 5% TCA in ACN
0.13 μL of compound solution was added to 13 μL of 10 nM PAD4 in assay buffer. After 30 min 13 μl of 500 μM of BAEE was added in 25 mM hepes, pH 7.5, 5 mM NaCl, 1 mM DTT, 0.2 mg/ml BSA, 0.01% CHAPS, 50 μM Calcium, 5 μM TPEN was added and the reaction incubated for 90 min at 37° C. The enzymatic reaction was quenched by addition of 15 μl of 6.1N TCA, 100% Final Concentration is 20%, 35 μl of 8.5 mM phenyl glyoxal (final concentration 4 mM) is then added and the reaction is incubated for 30 min at 37° C.
After 30 minutes the plates are spun down to remove all precipitate. The enzyme reaction was quenched with an equal volume of methanol containing internal standard (modified citrulline). Samples were loaded onto the Rapid Fire RF300 system (Agilent) wherein they were first sipped for 1000 ms and then directly loaded to a C18 separations cartridge using a mixture of acetonitrile containing 0.01% formic acid for 3000 ms desalting. The flow rate of the mobile phase was 1.5 ml/min. Once the samples were eluted from the cartridge, a mobile phase of acetonitrile containing 0.01% formic acid was used to move the samples into the mass spectrometer for 4000 ms at a flow rate of 1.25 ml/min/Sciex API5500 triple quadrupole mass spectrometer (Applied Biosystems) equipped with ESI was used to analyze the peptidyl citrulline and internal standard ions.
MRM transition of product and internal standard were monitored at m/z 424.5 to 350.4 and m/z 293 to 247 respectively. The dwell time for each transition was set at 200 ms, and the ESI voltage was used at 5500 with a source temperature of 400° C. Extracted ion peaks for each transition were integrated using the Rapid Fire Integrator software. Peak area of analyte was normalized with internal standard.).

Chain of human PAD4 (hPAD4) (Q9UM07 whole entry): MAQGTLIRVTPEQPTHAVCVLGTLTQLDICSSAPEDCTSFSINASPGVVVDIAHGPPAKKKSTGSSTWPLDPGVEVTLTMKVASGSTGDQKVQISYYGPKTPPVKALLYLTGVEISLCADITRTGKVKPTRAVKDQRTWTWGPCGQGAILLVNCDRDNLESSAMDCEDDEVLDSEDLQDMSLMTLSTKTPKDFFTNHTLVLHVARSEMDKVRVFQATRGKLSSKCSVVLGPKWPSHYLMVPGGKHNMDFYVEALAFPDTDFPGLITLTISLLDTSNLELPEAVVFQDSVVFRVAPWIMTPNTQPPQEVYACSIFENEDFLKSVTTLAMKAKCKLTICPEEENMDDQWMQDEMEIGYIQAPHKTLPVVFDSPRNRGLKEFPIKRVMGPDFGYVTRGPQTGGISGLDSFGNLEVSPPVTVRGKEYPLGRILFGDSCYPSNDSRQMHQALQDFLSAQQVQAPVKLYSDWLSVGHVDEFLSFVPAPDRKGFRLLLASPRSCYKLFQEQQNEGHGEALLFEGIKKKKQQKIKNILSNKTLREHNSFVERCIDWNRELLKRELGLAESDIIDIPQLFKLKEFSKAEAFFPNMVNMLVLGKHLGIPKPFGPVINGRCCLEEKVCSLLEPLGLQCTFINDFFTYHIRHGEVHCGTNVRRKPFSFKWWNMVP

Row | IC50 | SMILES
1 | 0.07 µM | COc1cc(C(=O)N2C[C@H]3CC[C@@H]2[C@@H]3N)cc2nc(-c3cc4scc(CC(CN)CCl)c4n3CC3CC3)n(C)c12 (stereo partly drawn) [Example 19, (2-(3-(3-amino-2-(chloromethyl)propyl)-4-(cyclopropylmethyl)-4H-thieno[3,2-b]pyrrol-5-yl)-7-methoxy-1-methyl-1H-benzo[d]imidazol-5-yl)((1R,4R,7R)-7-amino-2-azabicyclo[2.2.1]heptan-2-yl)methanone]
2 | 0.036 µM | COc1cc(C(=O)N2C[C@H]3CC[C@@H]2[C@@H]3N)cc2nc(-c3cc4scc(C5CC6(CNC6)C5)c4n3CC3CC3)n(C)c12 [Example 20, ((1R,4R,7R)-7-amino-2-azabicyclo[2.2.1]heptan-2-yl)(2-(4-(cyclopropylmethyl)-3-(2-azaspiro[3.3]heptan-6-yl)-4H-thieno[3,2-b]pyrrol-5-yl)-7-methoxy-1-methyl-1H-benzo[d]imidazol-5-yl)methanone]
3 | 0.055 µM | COc1cc(C(=O)N2C[C@H]3CC[C@@H]2[C@@H]3N)cc2nc(-c3cc4scc(C5CN(C(C)=O)C5)c4n3CC3CC3)n(C)c12 [Example 23, 1-(3-(5-(5-((1R,4R,7R)-7-amino-2-azabicyclo[2.2.1]heptane-2-carbonyl)-7-methoxy-1-methyl-1H-benzo[d]imidazol-2-yl)-4-(cyclopropylmethyl)-4H-thieno[3,2-b]pyrrol-3-yl)azetidin-1-yl)ethan-1-one]
4 | 0.041 µM | COc1cc(C(=O)N2C[C@H]3CC[C@@H]2[C@@H]3N)cc2nc(-c3cc4sc(Br)cc4n3CC3CC3)n(C)c12 [Example 24, ((1R,4R,7R)-7-Amino-2-azabicyclo[2.2.1]heptan-2-yl)(2-(2-bromo-4-(cyclopropylmethyl)-4H-thieno[3,2-b]pyrrol-5-yl)-7-methoxy-1-methyl-1H-benzo[d]imidazol-5-yl)methanone]
5 | 0.179 µM | COc1cc(C(=O)N2C[C@H]3CC[C@@H]2[C@@H]3N)cc2nc(-c3cc4sc(-c5ccncc5)cc4n3CC3CC3)n(C)c12 [Example 25, ((1R,4R,7R)-7-Amino-2-azabicyclo[2.2.1]heptan-2-yl)(2-(4-(cyclopropylmethyl)-2-(pyridin-4-yl)-4H-thieno[3,2-b]pyrrol-5-yl)-7-methoxy-1-methyl-1H-benzo[d]imidazol-5-yl)methanone]
6 | 0.107 µM | COc1cc(C(=O)N2C[C@H]3CC[C@@H]2[C@@H]3N)cc2nc(-c3cc4sc(-c5cn[nH]c5)cc4n3CC3CC3)n(C)c12 [Example 26, ((1R,4R,7R)-7-amino-2-azabicyclo[2.2.1]heptan-2-yl)(2-(4-(cyclopropylmethyl)-2-(1H-pyrazol-4-yl)-4H-thieno[3,2-b]pyrrol-5-yl)-7-methoxy-1-methyl-1H-benzo[d]imidazol-5-yl)methanone]
7 | 0.062 µM | COc1cc(C(=O)N2C[C@H]3CC[C@@H]2[C@@H]3N)cc2nc(-c3cc4sc(C)cc4n3CC3CC3)n(C)c12 [Example 27, ((1R,4R,7R)-7-amino-2-azabicyclo[2.2.1]heptan-2-yl)(2-(4-(cyclopropylmethyl)-2-methyl-4H-thieno[3,2-b]pyrrol-5-yl)-7-methoxy-1-methyl-1H-benzo[d]imidazol-5-yl)methanone]
8 | 0.067 µM | COc1cc(C(=O)N2C[C@H](N)C[C@@H](F)C2)cc2nc(-c3cc4sc(C)cc4n3CC3CC3)n(C)c12 [Example 28, ((3R,5R)-3-amino-5-fluoropiperidin-1-yl)(2-(4-(cyclopropylmethyl)-2-methyl-4H-thieno[3,2-b]pyrrol-5-yl)-7-methoxy-1-methyl-1H-benzo[d]imidazol-5-yl)methanone]
9 | 0.084 µM | COc1cc(C(=O)N2C[C@H]3CC[C@@H]2[C@@H]3N)cc2nc(-c3cc4sccc4n3CC3CC3)n(C)c12 [Example 29, ((1R,4R,7R)-7-amino-2-azabicyclo[2.2.1]heptan-2-yl)(2-(4-(cyclopropylmethyl)-4H-thieno[3,2-b]pyrrol-5-yl)-7-methoxy-1-methyl-1H-benzo[d]imidazol-5-yl)methanone]
10 | 0.086 µM | COc1cc(C(=O)N2C[C@H](N)C[C@@H](F)C2)cc2nc(-c3cc4sccc4n3CC3CC3)n(C)c12 [Example 30, ((3R,5R)-3-amino-5-fluoropiperidin-1-yl)(2-(4-(cyclopropylmethyl)-4H-thieno[3,2-b]pyrrol-5-yl)-7-methoxy-1-methyl-1H-benzo[d]imidazol-5-yl)methanone]
11 | 0.06 µM | COc1cc(C(=O)N2C[C@H](N)C[C@@H](F)C2)cc2nc(-c3cc4scc(Br)c4n3CC3CC3)n(C)c12 [Example 31, ((3R,5R)-3-amino-5-fluoropiperidin-1-yl)(2-(3-bromo-4-(cyclopropylmethyl)-4H-thieno[3,2-b]pyrrol-5-yl)-7-methoxy-1-methyl-1H-benzo[d]imidazol-5-yl)methanone]
12 | 0.017 µM | COc1cc(C(=O)N2C[C@H]3CC[C@@H]2[C@@H]3N)cc2nc(-c3cc4scc(-c5cnn(C)c5)c4n3CC3CC3)n(C)c12 [Example 32, ((1R,4R,7R)-7-amino-2-azabicyclo[2.2.1]heptan-2-yl)(2-(4-(cyclopropylmethyl)-3-(1-methyl-1H-pyrazol-4-yl)-4H-thieno[3,2-b]pyrrol-5-yl)-7-methoxy-1-methyl-1H-benzo[d]imidazol-5-yl)methanone]
13 | 0.05 µM | COc1cc(C(=O)N2C[C@H](N)C[C@@H](F)C2)cc2nc(-c3cc4scc(-c5cnn(C)c5)c4n3CC3CC3)n(C)c12 [Example 33, ((3R,5R)-3-amino-5-fluoropiperidin-1-yl)(2-(4-(cyclopropylmethyl)-3-(1-methyl-1H-pyrazol-4-yl)-4H-thieno[3,2-b]pyrrol-5-yl)-7-methoxy-1-methyl-1H-benzo[d]imidazol-5-yl)methanone]
14 | 0.048 µM | COc1cc(C(=O)N2C[C@H]3CC[C@@H]2[C@@H]3N)cc2nc(-c3cc4scc(-c5ccn(C(C)C)n5)c4n3CC3CC3)n(C)c12 [Example 34, ((1R,4R,7R)-7-amino-2-azabicyclo[2.2.1]heptan-2-yl)(2-(4-(cyclopropylmethyl)-3-(1-isopropyl-1H-pyrazol-3-yl)-4H-thieno[3,2-b]pyrrol-5-yl)-7-methoxy-1-methyl-1H-benzo[d]imidazol-5-yl)methanone]
15 | 0.15 µM | COc1cc(C(=O)N2C[C@H]3CC[C@@H]2[C@@H]3N)cc2nc(-c3cc4scc(-c5ccc(O)c(Cl)c5)c4n3CC3CC3)n(C)c12 [Example 35, ((1R,4R,7R)-7-amino-2-azabicyclo[2.2.1]heptan-2-yl)(2-(3-(3-chloro-4-hydroxyphenyl)-4-(cyclopropylmethyl)-4H-thieno[3,2-b]pyrrol-5-yl)-7-methoxy-1-methyl-1H-benzo[d]imidazol-5-yl)methanone]
16 | 0.059 µM | COc1cc(C(=O)N2C[C@H]3CC[C@@H]2[C@@H]3N)cc2nc(-c3cc4scc(-c5ccc(O)c(F)c5)c4n3CC3CC3)n(C)c12 [Example 36, ((1R,4R,7R)-7-amino-2-azabicyclo[2.2.1]heptan-2-yl)(2-(4-(cyclopropylmethyl)-3-(3-fluoro-4-hydroxyphenyl)-4H-thieno[3,2-b]pyrrol-5-yl)-7-methoxy-1-methyl-1H-benzo[d]imidazol-5-yl)methanone]
17 | 0.054 µM | COc1cc(C(=O)N2C[C@H]3CC[C@@H]2[C@@H]3N)cc2nc(-c3cc4scc(-c5ccn(C)n5)c4n3CC3CC3)n(C)c12 [Example 37, ((1R,4R,7R)-7-amino-2-azabicyclo[2.2.1]heptan-2-yl)(2-(4-(cyclopropylmethyl)-3-(1-methyl-1H-pyrazol-3-yl)-4H-thieno[3,2-b]pyrrol-5-yl)-7-methoxy-1-methyl-1H-benzo[d]imidazol-5-yl)methanone]
18 | 0.1 µM | COc1cc(C(=O)N2C[C@H]3CC[C@@H]2[C@@H]3N)cc2nc(-c3cc4scc(-c5cccs5)c4n3CC3CC3)n(C)c12 [Example 38, ((1R,4R,7R)-7-amino-2-azabicyclo[2.2.1]heptan-2-yl)(2-(4-(cyclopropylmethyl)-3-(thiophen-2-yl)-4H-thieno[3,2-b]pyrrol-5-yl)-7-methoxy-1-methyl-1H-benzo[d]imidazol-5-yl)methanone]
